From patent US10385034B2, “Flavonoid IL-17A inhibitors” (THE CLEVELAND CLINIC FOUNDATION, priority 2014, dated 2019)
“Also recorded” adds a separate entry of the source.

Legend:
[1] = molecular target: T1, IL-17A-IL-17RA binding (Homo sapiens, UniProt Q96F46); assay: IL-17A-IL-17RA binding assay (ELISA); conditions: serial dilutions of compound
T1 construct: human IL-17RA-Fc (extracellular domain 1-322 AA fused with Fc region of human IgG1 at the C-terminus); purchased Sino Biological Inc
Protocol: IL-17A-IL-17RA binding assay. ELISA plates were coated with human IL-17A or IL-17E (2 μg/ml in PBS). Human IL-17RA-Fc or human IL-17RB-Fc (150 ng/ml) were added and incubated for 1 h, followed by incubation with human HRP-conjugated anti human IgG Fc secondary antibody for 1 h. ELISA were finally developed using tetramethylbenzidine substrate.

[2] = test system: D4M melanoma cells; assay: Experimental melanoma lung metastasis; format: in vivo; conditions: C57BL/6, 1×10^6 D4M cells tail vein, A18 60 μg/mouse daily, day 20
Protocol: Melanoma pulmonary metastasis is indicative of poor prognosis. The experimental lung metastasis has been used to test the ability of tumor cell migration, growth at distant sites, effects of drugs for treatment of lung metastasis. In this model, melanoma cells are injected through tail vein, and metastatic lesions can be established in the lung after 2-3 weeks. Here we used this experimental lung metastasis model to test the possible impact of A18 on melanoma re-establishment at distant lung tissue. […] melanoma cells (Jenkins et al., Pigment cell & melanoma research 27, 495-501 (2014)), (1×10^6 cells) were injected into C57BL/6 mouse through tail vein. The control group mice were injected with 200 μl PBS daily, the other group mice were injected with 60 μg A18/mouse daily. The Histological sections were obtained from lung tissue at day 20.

[3] = test system: A549 cells; assay: IL-17A-induced CXCL1 (Groα) production, ELISA; format: cell-based, human; conditions: A549, IL-17 100 ng/ml, 24 h
Excerpt: Reagents, cell culture and mice. Purified proteins of human IL-17A, human IL-17E (IL-25), human IL-17RA-Fc (extracellular domain 1-322 AA fused with Fc region of human IgG1 at the C-terminus), human IL-17RB-Fc (extracellular domain 1-289 AA fused with Fc region of human IgG1 at the C-terminus), human horseradish peroxidase (HRP)-conjugated IgG Fc secondary antibody were purchased from Sino Biological Inc. Human and mouse IL-17A and mouse IL-23 used for cell culture and animal injection were purchased from R&D Systems. Human mammary epithelial cells were maintained in Medium 171 plus mammary epithelial growth supplement (MEGS) purchased from Invitrogen, which contain bovine pituitary extract (BPE) (0.4% v/v), recombinant human insulin-like growth factor-I (1 μg/ml), hydrocortisone (0.5 μg/ml) and human epidermal growth factor (3 ng/ml). A549 cells were maintained in RPMI supplemented with 10% FCS and 100 U/ml penicillin and 100 μg/ml streptomycin. All mice were obtained from Jackson laboratory.
ELISA. Groα and IL-17A levels were assayed by ELISA kits (R&D systems) according to the manufacturer's instruction.

[4] = test system: HFD-induced AHR; assay: High-fat-diet-induced airway hyperreactivity; format: in vivo; conditions: A18 30 μg per mouse i.p., last 10 days of HFD
Protocol: High-fat-diet intervention. Starting at 4 weeks of age, WT C57BL/6 male mice were fed with 10 kcal % fat chow diet (CD) or a 60 kcal % HFD for 14 weeks. HFD+A18 group of mice were i.p. injected with A18 (30 μg per mouse) daily for 10 days before subjection to AHR measurement. Both CD (D12450B) or HFD (D12492) were obtained from Research Diets, Inc. Measurement of AHR. AHR was measured in mice in response to increasing doses of inhaled methacholine. Mice were anesthetized with i.p. pentobarbital sodium (60 mg/kg). After the intubation and the placement of a 19-gauge cannula through a tracheotomy incision, the cannula was affixed with a silk suture ligation. Mice were connected to a computer-controlled piston ventilator run at a rate of 150 breaths/min, a tidal volume of 0.2 ml, and a positive end-expiratory pressure of 2-3 cm H2O (Flexivent). Mice were then administered a muscle relaxant (pancuronium bromide, 800 mg/kg), and the lungs were expanded twice to total lung capacity at an amplitude pressure of 30 cm H2O. […] Lung resistance (RL) was obtained through forced oscillation technique by FlexiVent 5.2 (Flexivent; Scireq) software. Real-time PCR. […] All gene expression results are expressed as arbitrary units relative to expression of the gene encoding beta-actin.

[5] = test system: IL-17A-induced gene expression in lung tissue; assay: Intranasal injection of IL-17A (lung inflammation); format: in vivo; conditions: BALB/c mice, A18 4 μg per mouse intranasal with IL-17A 1 μg, 4 h
Protocol: Intranasal injection of IL-17A. Eight-week WT BALB/cJ female mice were subjected to intranasal injection of PBS, 1 μg of IL-17A with or without A18 (4 μg per mouse). […]
Real-time PCR. Total RNA was extracted from spinal cords and cultured astrocytes with TRIzol (Invitrogen) according to the manufacturer's instructions. All gene expression results are expressed as arbitrary units relative to expression of the gene encoding beta-actin.

[6] = test system: HDM-induced allergic airway disease; assay: House dust mite (HDM)-induced asthma; format: in vivo; conditions: C57BL/6 mice, A18 30 μg per mouse i.p. daily
Protocol: Measurement of AHR. AHR was measured in mice in response to increasing doses of inhaled methacholine. Mice were anesthetized with i.p. pentobarbital sodium (60 mg/kg). After the intubation and the placement of a 19-gauge cannula through a tracheotomy incision, the cannula was affixed with a silk suture ligation. Mice were connected to a computer-controlled piston ventilator run at a rate of 150 breaths/min, a tidal volume of 0.2 ml, and a positive end-expiratory pressure of 2-3 cm H2O (Flexivent). Mice were then administered a muscle relaxant (pancuronium bromide, […]), and the lungs were expanded twice to total lung capacity at an amplitude pressure of 30 cm H2O. Each mouse was aerosolized with methacholine in saline at doses of 0 mg/ml, 12.5 mg/ml, 25 mg/ml, and 50 mg/ml, delivered over 10 s through an in-line nebulizer. Lung resistance (RL) was obtained through forced oscillation technique by FlexiVent 5.2 (Flexivent; Scireq) software. House dust mite (HDM)-induced asthma. WT C57BL/6 mice were sensitized intratracheally (i.t.) with HDM (Dermatophagoides farina, 100 μg per mouse, Greer Laboratories) on day 0 and subsequently challenged (i.t.) with HDM (100 μg per mouse) from day 7 for 5 days. […] All gene expression results are expressed as arbitrary units relative to expression of the gene encoding beta-actin.

[7] = test system: IL-17A-induced intraperineal neutrophilia; assay: Peritoneal administration of IL-17A (neutrophilia); format: in vivo; conditions: BALB/c mice, A18 30 μg per mouse i.p. co-injected with IL-17A 1 μg, 6 h
Protocol: Peritoneal administration of IL-17A. Eight-week WT BALB/cJ female mice were subjected to intraperitoneal injection (i.p.) of PBS, 1 μg of IL-17A with or without A18 (30 μg per mouse). The peritoneal cavity was lavaged with 5 ml ice-cold PBS at 6 h post treatment. Peritoneal cells were counted and quantified by differential cell counting.

T1 sequence (Q96F46 33-322): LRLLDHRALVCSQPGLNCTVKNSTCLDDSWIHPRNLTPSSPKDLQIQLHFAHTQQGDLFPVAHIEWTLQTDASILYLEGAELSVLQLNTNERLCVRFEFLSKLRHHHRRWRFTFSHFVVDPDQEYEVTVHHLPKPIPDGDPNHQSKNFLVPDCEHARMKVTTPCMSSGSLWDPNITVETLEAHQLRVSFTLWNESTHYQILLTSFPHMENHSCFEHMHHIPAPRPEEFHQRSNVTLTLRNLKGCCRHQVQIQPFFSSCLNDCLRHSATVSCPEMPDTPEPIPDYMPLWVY

With `Oc1cc(O)c2cc(O)c(-c3ccc(O)c(O)c3)[o+]c2c1.[Cl-]` [A18, 2-(3,4-Dihydroxyphenyl)-3,5,7-trihydroxy-1-benzopyrylium chloride] the “Inhibition of IL-17A-IL-17RA binding” value [1] was “excellent inhibition efficacy; also recorded: great inhibition efficacy”, the Lung metastasis tumors [2] was “Fewer and smaller” and the “IL-17A-mediated CXCL1 production” value [3] was “greatly inhibited”. For the same compound, the “HFD-induced AHR” value ([4]; C57Bl/6 mice) was “substantially attenuated”, the “HFD-induced inflammatory gene expression in lung” value ([4]; C57Bl/6 mice) was “substantially attenuated” and the “HFD-induced production of IL-17A in the lung” value ([4]; cultured lung cells) was “no impact”. The “IL-17A-induced gene expression in lung” value [5] was “greatly inhibited”, the “HDM-induced AHR” value [6] was “reduced” and the “HDM-induced inflammatory gene expression” value [6] was “reduced”. The IL-17A-induced intraperineal neutrophilia [7] was “greatly attenuated”.
